Test results reported in patent US20110105509A1 (Wyeth, LLC, priority 2009, published 2011).

Target: T1, CRTH2 (Homo sapiens, UniProt Q9Y5Y4)
T1 construct: expressed in transfected cells; host or cells: CHO cells
T1 sequence (Q9Y5Y4 1-395): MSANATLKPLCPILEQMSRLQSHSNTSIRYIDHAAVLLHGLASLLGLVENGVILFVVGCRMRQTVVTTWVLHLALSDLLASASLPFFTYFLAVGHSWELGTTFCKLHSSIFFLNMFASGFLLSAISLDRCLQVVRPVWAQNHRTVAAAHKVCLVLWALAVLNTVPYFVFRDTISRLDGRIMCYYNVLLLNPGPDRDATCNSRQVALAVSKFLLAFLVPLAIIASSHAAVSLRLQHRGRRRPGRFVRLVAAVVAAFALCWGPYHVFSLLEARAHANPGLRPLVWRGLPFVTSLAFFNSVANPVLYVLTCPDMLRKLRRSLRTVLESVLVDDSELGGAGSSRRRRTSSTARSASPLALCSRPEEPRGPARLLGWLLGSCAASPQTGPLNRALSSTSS
Assay: FRET based competitive immunoassay (cAMP) in CRTH2 expressing CHO cells
Format: cell-based
Details: CRTH2 expressing CHO cells incubated with forskolin and PGD2; Eu3+ cryptate-labeled anti-cAMP and d2-labeled cAMP
Description: FRET Assay: To evaluate potency compounds were tested in a FRET based competitive immunoassay in which CRTH2 expressing CHO cells were incubated in the presence of forskolin and PGD2 along with Eu3+ cryptate-labeled anti-cAMP and d2-labeled cAMP.

Compound | IC50 [nM]
Cc1c(-c2nn(CC(C)(C)C)c(=O)c3ccccc23)c2cc(F)ccc2n1CC(=O)O [Example 126, 2-(5-fluoro-2-methyl-3-(3-neopentyl-4-oxo-3,4-dihydrophthalazin-1-yl)-1H-indol-1-yl)acetic acid] | 8
Cc1c(-c2nn(CCC(F)(F)F)c(=O)c3ccccc23)c2cc(F)ccc2n1CC(=O)O [Example 127, 2-(5-fluoro-2-methyl-3-(4-oxo-3-(3,3,3-trifluoropropyl)-3,4-dihydro-phthalazin-1-yl)-1H-indol-1-yl)acetic acid] | 4
CCC(O)(CC)Cn1nc(-c2c(C)n(CC(=O)O)c3ccc(F)cc23)c2ccccc2c1=O [Example 128, 2-(3-(3-(2-ethyl-2-hydroxybutyl)-4-oxo-3,4-dihydrophthalazin-1-yl)-5-fluoro-2-methyl-1H-indol-1-yl)acetic acid] | 6
Cc1c(-c2nn(CC(C)(C)O)c(=O)c3ccccc23)c2cc(F)ccc2n1CC(=O)O [Example 129, 2-(5-fluoro-3-(3-(2-hydroxy-2-methylpropyl)-4-oxo-3,4-dihydrophthalazin-1-yl)-2-methyl-1H-indol-1-yl)acetic acid] | 136
CC(C)=CCn1nc(-c2c(C)n(CC(=O)O)c3ccc(F)cc23)c2ccccc2c1=O [Example 130, 2-(5-fluoro-2-methyl-3-(3-(3-methylbut-2-enyl)-4-oxo-3,4-dihydro-phthalazin-1-yl)-1H-indol-1-yl)acetic acid] | > 1000
Cc1c(-c2nn(CC(O)(C(F)(F)F)C(F)(F)F)c(=O)c3ccccc23)c2cc(F)ccc2n1CC(=O)O [Example 131, 2-(5-fluoro-2-methyl-3-(4-oxo-3-(3,3,3-trifluoro-2-hydroxy-2-(trifluoro-methyl)propyl)-3,4-dihydrophthalazin-1-yl)-1H-indol-1-yl)acetic acid] | 54
Cc1c(-c2nn(CCC(C)(C)O)c(=O)c3ccccc23)c2cc(F)ccc2n1CC(=O)O [Example 132, 2-(5-fluoro-3-(3-(3-hydroxy-3-methylbutyl)-4-oxo-3,4-dihydrophthalazin-1-yl)-2-methyl-1H-indol-1-yl)acetic acid] | 75
CCC(=O)Cn1nc(-c2c(C)n(CC(=O)O)c3ccc(F)cc23)c2ccccc2c1=O [Example 133, 2-(5-fluoro-2-methyl-3-(4-oxo-3-(2-oxobutyl)-3,4-dihydrophthalazin-1-yl)-1H-indol-1-yl)acetic acid] | 8
Cc1c(-c2nn(Cc3ccncc3)c(=O)c3ccccc23)c2cc(F)ccc2n1CC(=O)O [Example 134, 2-(5-fluoro-2-methyl-3-(4-oxo-3-(pyridin-4-ylmethyl)-3,4-dihydrophthalazin-1-yl)-1H-indol-1-yl)acetic acid] | 3
Cc1c(-c2nn(Cc3cccnc3)c(=O)c3ccccc23)c2cc(F)ccc2n1CC(=O)O [Example 135, 2-(5-fluoro-2-methyl-3-(4-oxo-3-(pyridin-3-ylmethyl)-3,4-dihydrophthalazin-1-yl)-1H-indol-1-yl)acetic acid] | 5
Cc1c(-c2nn(Cc3ccccn3)c(=O)c3ccccc23)c2cc(F)ccc2n1CC(=O)O [Example 136, 2-(5-fluoro-2-methyl-3-(4-oxo-3-(pyridin-2-ylmethyl)-3,4-dihydrophthalazin-1-yl)-1H-indol-1-yl)acetic acid] | 4
Cc1c(-c2nn(CCC(C(F)(F)F)C(F)(F)F)c(=O)c3ccccc23)c2cc(F)ccc2n1CC(=O)O [Example 137, 2-(5-fluoro-2-methyl-3-(4-oxo-3-(4,4,4-trifluoro-3-(trifluoromethyl)butyl)-3,4-dihydrophthalazin-1-yl)-1H-indol-1-yl)acetic acid] | 21
Cc1c(-c2nn(Cc3ccncc3F)c(=O)c3ccccc23)c2cc(F)ccc2n1CC(=O)O [Example 138, 2-(5-fluoro-3-(3-((3-fluoropyridin-4-yl)methyl)-4-oxo-3,4-dihydrophthalazin-1-yl)-2-methyl-1H-indol-1-yl)acetic acid] | 5
Cc1c(-c2ccc(=O)n(Cc3ccc(F)cc3)n2)c2cc(Cl)ccc2n1CC(=O)O [Example 139, 2-(5-Chloro-3-(1-(4-fluorobenzyl)-6-oxo-1,6-dihydropyridazin-3-yl)-2-methyl-1H-indol-1-yl)acetic acid] | 24
Cc1c(-c2ccc(=O)n(CCOc3ccc(Cl)cc3)n2)c2cc(Cl)ccc2n1CC(=O)O [Example 140, 2-(5-chloro-3-(1-(2-(4-chlorophenoxy)ethyl)-6-oxo-1,6-dihydropyridazin-3-yl)-2-methyl-1H-indol-1-yl)acetic acid] | 16
Cc1c(-c2ccc(=O)n(Cc3nc4ccccc4s3)n2)c2cc(Cl)ccc2n1CC(=O)O [Example 141, 2-(3-(1-(benzo[d]thiazol-2-ylmethyl)-6-oxo-1,6-dihydropyridazin-3-yl)-5-chloro-2-methyl-1H-indol-1-yl)acetic acid] | 46

Compound | IC50 [nM]
Cc1c(-c2ccc(=O)n(Cc3ccc(F)cc3C(F)(F)F)n2)c2cc(Cl)ccc2n1CC(=O)O [Example 142, 2-(5-chloro-3-(1-(4-fluoro-2-(trifluoromethyl)benzyl)-6-oxo-1,6-dihydro-pyridazin-3-yl)-2-methyl-1H-indol-1-yl)acetic acid] | 19
Cc1c(-c2ccc(=O)n(Cc3cccc(F)c3C(F)(F)F)n2)c2cc(Cl)ccc2n1CC(=O)O [Example 143, 2-(5-chloro-3-(1-(3-fluoro-2-(trifluoromethyl)benzyl)-6-oxo-1,6-dihydro-pyridazin-3-yl)-2-methyl-1H-indol-1-yl)acetic acid] | 55
Cc1c(-c2ccc(=O)n(Cc3ccc4ccccc4n3)n2)c2cc(Cl)ccc2n1CC(=O)O [Example 144, 2-(5-chloro-2-methyl-3-(6-oxo-1-(quinolin-2-ylmethyl)-1,6-dihydro-pyridazin-3-yl)-1H-indol-1-yl)acetic acid] | 11
Cc1cc(Cn2nc(-c3c(C)n(CC(=O)O)c4ccc(Cl)cc34)ccc2=O)c2ccccc2n1 [Example 145, 2-(5-chloro-2-methyl-3-(1-((2-methylquinolin-4-yl)methyl)-6-oxo-1,6-dihydropyridazin-3-yl)-1H-indol-1-yl)acetic acid] | 144
Cc1ccc(Cn2nc(-c3c(C)n(CC(=O)O)c4ccc(Cl)cc34)ccc2=O)cc1 [Example 146, 2-(5-chloro-2-methyl-3-(1-(4-methylbenzyl)-6-oxo-1,6-dihydropyridazin-3-yl)-1H-indol-1-yl)acetic acid] | 74
Cc1c(-c2ccc(=O)n(Cc3ccc(C(C)C)cc3)n2)c2cc(Cl)ccc2n1CC(=O)O [Example 147, 2-(5-chloro-3-(1-(4-isopropylbenzyl)-6-oxo-1,6-dihydropyridazin-3-yl)-2-methyl-1H-indol-1-yl)acetic acid] | 334
COc1ccc(Cn2nc(-c3c(C)n(CC(=O)O)c4ccc(Cl)cc34)ccc2=O)cc1 [Example 148, 2-(5-chloro-3-(1-(4-methoxybenzyl)-6-oxo-1,6-dihydropyridazin-3-yl)-2-methyl-1H-indol-1-yl)acetic acid] | 42
Cc1c(-c2ccc(=O)n(C)n2)c2cc(Cl)ccc2n1CC(=O)O [Example 149, 2-(5-chloro-2-methyl-3-(1-methyl-6-oxo-1,6-dihydropyridazin-3-yl)-1H-indol-1-yl)acetic acid] | 2150
CCn1nc(-c2c(C)n(CC(=O)O)c3ccc(Cl)cc23)ccc1=O [Example 150, 2-(5-chloro-3-(1-ethyl-6-oxo-1,6-dihydropyridazin-3-yl)-2-methyl-1H-indol-1-yl)acetic acid] | 559
Cc1c(-c2ccc(=O)n(CCOc3ccc(Cl)cc3)n2)c2cc(F)ccc2n1CC(=O)O [Example 152, 2-(3-(1-(2-(4-chlorophenoxy)ethyl)-6-oxo-1,6-dihydropyridazin-3-yl)-5-fluoro-2-methyl-1H-indol-1-yl)acetic acid] | 12
Cc1c(-c2ccc(=O)n(Cc3nc4ccccc4s3)n2)c2cc(F)ccc2n1CC(=O)O [Example 153, 2-(3-(1-(benzo[d]thiazol-2-ylmethyl)-6-oxo-1,6-dihydropyridazin-3-yl)-5-fluoro-2-methyl-1H-indol-1-yl)acetic acid] | 25
Cc1c(-c2ccc(=O)n(Cc3cccc(F)c3)n2)c2cc(F)ccc2n1CC(=O)O [Example 154, 2-(5-Fluoro-3-(1-(3-fluorobenzyl)-6-oxo-1,6-dihydropyridazin-3-yl)-2-methyl-1H-indol-1-yl)acetic acid] | 30
Cc1c(-c2ccc(=O)n(Cc3cccc(F)c3C(F)(F)F)n2)c2cc(F)ccc2n1CC(=O)O [Example 156, 2-(5-fluoro-3-(1-(3-fluoro-2-(trifluoromethyl)benzyl)-6-oxo-1,6-dihydro-pyridazin-3-yl)-2-methyl-1H-indol-1-yl)acetic acid] | 25
Cc1c(-c2ccc(=O)n(Cc3ccc4ccccc4n3)n2)c2cc(F)ccc2n1CC(=O)O [Example 157, 2-(5-fluoro-2-methyl-3-(6-oxo-1-(quinolin-2-ylmethyl)-1,6-dihydro-pyridazin-3-yl)-1H-indol-1-yl)acetic acid] | 57
Cc1cc(Cn2nc(-c3c(C)n(CC(=O)O)c4ccc(F)cc34)ccc2=O)c2ccccc2n1 [Example 158, 2-(5-fluoro-2-methyl-3-(1-((2-methylquinolin-4-yl)methyl)-6-oxo-1,6-dihydro-pyridazin-3-yl)-1H-indol-1-yl)acetic acid] | 73
